These results are taken from patent publication US7803801B2, “Aminopyridine compounds having Syk inhibitory activity” (Japan Tobacco, Inc., priority 2005, dated 2010).

By pIC50 is commonly meant −log10 of the IC50, conventionally taken in molar units.

Experiment [1] relates to cultured human mast cells. The experiment is described as follows: Degranulation inhibition test using cultured human mast cells (IgE cross-linking, β-Hexosaminidase release). To be noted: Mast cell, cultured human mast cells, read-out: human degranulation ave. IC50. Format: cell-based. In short, it runs like this: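 CD34+ cord-blood cells cultured ≥8 weeks with SCF/IL-6/IL-3; FcεRI primed 5 days with rhIL-4 (1 ng/mL) and hIgE (0.5 μg/mL). Compound (0.1% DMSO) preincubated 10 min at 37 °C, then anti-IgE (final 10 μg/mL) 30 min; released β-hexosaminidase read at 405 nm versus total lysate, IC50 (M).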

Experiment [2] has as its target GST-Syk Full Protein (human) (Homo sapiens, UniProt P43405). The experiment is described as follows: Syk kinase inhibition test (HTRF method). Format: biochemical. To be noted: read-out: sykHTRF ave IC50. In short, it runs like this:
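Human GST-Syk full-length (6.4 nM) phosphorylated biotin-EDPDYEWPSA-NH2 (250 nM) with 100 μM ATP in HEPES pH 7.0/MgCl2 buffer, 2% DMSO, 30 min at room temperature. EDTA stop, then HTRF detection (streptavidin-XL665, Eu anti-phosphotyrosine) after 1 h; 665/620 ratio read.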
(In general: In TR-FRET formats the signal depends on donor and acceptor labels being close together.)

Setting [3] is: anti-hIgE stimulation, β-Hexosaminidase index, average.
[4] abbreviates: HTRF, 100 μM ATP, 30 min room temperature, average.

pIC50: −log10 of the molar value. Like-named read-outs stand apart in the source and are kept apart here.

`Cc1ccnc(Nc2cccc(-c3cnc([C@@H]4CCCC(=O)N4C)s3)n2)c1` [Compound A-364]: the pIC50 in experiment [1] (setting [3]) and in experiment [2] (setting [4]) was 6.00 to 7.00 in each case.

With `Cc1ccnc(Nc2cccc(-c3cnc([C@@H]4COC(C)(C)O4)s3)n2)c1` [Compound A-365], the pIC50 in experiment [1] (setting [3]) and in experiment [2] (setting [4]) was 6.00 to 7.00 each time.

With `CC(=O)OC(Cc1ccc(O)cc1)c1ncc(-c2cccc(Nc3cc(C)ccn3)n2)s1` (stereo not shown) [Compound A-366], the pIC50 in experiment [1] (setting [3]) and in experiment [2] (setting [4]) was 6.00 to 7.00 throughout.

Regarding `CNC(=O)COCc1ncc(-c2cccc(Nc3cc(C)ccn3)n2)s1` [Compound A-367], the negative logarithm of the IC50 (pIC50) in experiment [1] (setting [3]) and in experiment [2] (setting [4]) was 6.00 to 7.00 each time.

`Cc1ccnc(Nc2cccc(-c3cnc(COCC(=O)N(C)C)s3)n2)c1` [Compound A-368]: the pIC50 in experiment [1] (setting [3]) and in experiment [2] (setting [4]) was 6.00 to 7.00 each time.

For `Cc1ccnc(Nc2cccc(-c3cnc(COCC(=O)N4CCC(O)CC4)s3)n2)c1` [Compound A-369], the pIC50 in experiment [1] (setting [3]) was < 6.00; in experiment [2] (setting [4]) it was 6.00 to 7.00.

In the case of `Cc1ccnc(Nc2cccc(-c3cnc(COCC(=O)N4CCNC(=O)C4)s3)n2)c1` [Compound A-370, 4-(2-{5-[6-(4-methylpyridin-2-ylamino)pyridin-2-yl]thiazol-2-ylmethoxy}acetyl)piperazin-2-one], the pIC50 in experiment [1] (setting [3]) is 6.00 to 7.00; in experiment [2] (setting [4]), > 7.00.

Take `Cc1ccnc(Nc2cccc(-c3cnc(C4CCN(C(=O)N(C)C)CC4)s3)n2)c1` [Compound A-371]: the pIC50 in experiment [1] (setting [3]) and in experiment [2] (setting [4]) was 6.00 to 7.00 throughout.

For the molecule `CC(=O)N(C)[C@H](c1ccc(O)cc1)c1ncc(-c2cccc(Nc3cc(C)ccn3)n2)s1` [Compound A-372, N—((R)-(4-hydroxyphenyl)-{5-[6-(4-methylpyridin-2-ylamino)pyridin-2-yl]thiazol-2-yl}methyl)-N-methylacetamide], the pIC50 in experiment [1] (setting [3]) is 6.00 to 7.00; in experiment [2] (setting [4]), > 7.00.

As to `Cc1ccnc(Nc2cccc(-c3cnc([C@@H]4CCC(=O)N4C)s3)n2)c1` [Compound A-373], the pIC50 in experiment [1] (setting [3]) and in experiment [2] (setting [4]) was 6.00 to 7.00 in each case.

Regarding `Cc1ccnc(Nc2cccc(-c3cnc(COCC(=O)N4C[C@@H](O)[C@@H](O)C4)s3)n2)c1` [Compound A-374], the pIC50 is < 6.00 in experiment [1] (setting [3]) and 6.00 to 7.00 in experiment [2] (setting [4]).

On to `Cc1ccnc(Nc2cccc(-c3cnc([C@@H](O)CN(C)C)s3)n2)c1` [Compound A-375], for which the pIC50 in experiment [1] (setting [3]) and in experiment [2] (setting [4]) was 6.00 to 7.00 each time.

As for `CC(=O)N(C)[C@@H](Cc1ccc(O)cc1)c1ncc(-c2cccc(Nc3cc(C)ccn3)n2)s1` [Compound A-376], the pIC50 is 6.00 to 7.00 in experiment [1] (Tables 1-x, compounds A) and 6.00 to 7.00 in experiment [2] (Tables 1-x, compounds A).

Regarding `CC(=O)Oc1ccc(C(=O)N2CCC(c3ncc(-c4cccc(Nc5cc(C)ccn5)n4)s3)CC2)cc1` [Compound A-377], the pIC50 in experiment [1] (Tables 1-x, compounds A) is 6.00 to 7.00; in experiment [2] (Tables 1-x, compounds A), 6.00 to 7.00.

`Cc1ccnc(Nc2cccc(-c3cnc(C4CCN(C(=O)c5ccc(O)cc5)CC4)s3)n2)c1` [Compound A-378]: the pIC50 in experiment [1] (Tables 1-x, compounds A) is 6.00 to 7.00; in experiment [2] (Tables 1-x, compounds A), 6.00 to 7.00.

As to `Cc1ccnc(Nc2cccc(-c3cnc(CN4CCC[C@H]4CO)s3)n2)c1` [Compound A-379], the pIC50 in experiment [1] (Tables 1-x, compounds A) is 6.00 to 7.00; in experiment [2] (Tables 1-x, compounds A), 6.00 to 7.00.

For `Cc1ccnc(Nc2cccc(-c3cnc(CN4CCC(O)C4)s3)n2)c1` (stereo not shown) [Compound A-380], the pIC50 in experiment [1] (Tables 1-x, compounds A) was 6.00 to 7.00; in experiment [2] (Tables 1-x, compounds A), 6.00 to 7.00.

Consider `Cc1ccnc(Nc2cccc(-c3cnc(CN4C[C@@H](O)[C@@H](O)C4)s3)n2)c1` [Compound A-381], for which the pIC50 in experiment [1] (Tables 1-x, compounds A) was 6.00 to 7.00; in experiment [2] (Tables 1-x, compounds A), 6.00 to 7.00.

In the case of `Cc1ccnc(Nc2cccc(-c3cnc(CN4CCN(c5ccc(O)cc5)CC4)s3)n2)c1` [Compound A-382], the pIC50 was 6.00 to 7.00 in experiment [1] (Tables 1-x, compounds A) and 6.00 to 7.00 in experiment [2] (Tables 1-x, compounds A).

Regarding `Cc1ccnc(Nc2cccc(-c3cnc(CN4CC(=O)NC(=O)C4)s3)n2)c1` [Compound A-383, 4-{5-[6-(4-methylpyridin-2-ylamino)pyridin-2-yl]thiazol-2-ylmethyl}piperazine-2,6-dione], the pIC50 in experiment [1] (Tables 1-x, compounds A) was 6.00 to 7.00; in experiment [2] (Tables 1-x, compounds A) it was > 7.00.

With `CN[C@@H](Cc1ccc(O)cc1)c1ncc(-c2cccc(Nc3cc(C)ccn3)n2)s1` [Compound A-384], the pIC50 in experiment [1] (Tables 1-x, compounds A) is 6.00 to 7.00; in experiment [2] (Tables 1-x, compounds A), 6.00 to 7.00.

Regarding `Cc1ccnc(Nc2cccc(-c3cnc(CN4C(=O)CC(C)(C)CC4=O)s3)n2)c1` [Compound A-385], the pIC50 in experiment [1] (Tables 1-x, compounds A) was 6.00 to 7.00; in experiment [2] (Tables 1-x, compounds A), 6.00 to 7.00.

For `Cc1ccnc(Nc2cccc(-c3cnc(CNC4CCN(C(=O)OC(C)(C)C)CC4)s3)n2)c1` [Compound A-386], the pIC50 was 6.00 to 7.00 in experiment [1] (Tables 1-x, compounds A) and 6.00 to 7.00 in experiment [2] (Tables 1-x, compounds A).

As for `Cc1ccnc(Nc2cccc(-c3cnc(CN4C(=O)COCC4=O)s3)n2)c1` [Compound A-387], the pIC50 is 6.00 to 7.00 in experiment [1] (Tables 1-x, compounds A) and 6.00 to 7.00 in experiment [2] (Tables 1-x, compounds A).

With `Cc1ccnc(Nc2cccc(-c3cnc(COCC(=O)N4CCN(C)C(=O)C4)s3)n2)c1` [Compound A-388], the pIC50 in experiment [1] (Tables 1-x, compounds A) was < 6.00; in experiment [2] (Tables 1-x, compounds A) it was < 6.00.

Regarding `Cc1ccnc(Nc2cccc(-c3cnc(C4CCCNC4)s3)n2)c1` (stereo not shown) [Compound A-390], the pIC50 was 6.00 to 7.00 in experiment [1] (Tables 1-x, compounds A) and 6.00 to 7.00 in experiment [2] (Tables 1-x, compounds A).

On to `Cc1ccnc(Nc2cccc(-c3cnc(CN4C(=O)CN(Cc5ccccc5)CC4=O)s3)n2)c1` [Compound A-391], for which the pIC50 in experiment [1] (Tables 1-x, compounds A) was < 6.00; in experiment [2] (Tables 1-x, compounds A), < 6.00.

Regarding `Cc1ccnc(Nc2cccc(-c3cnc(C4CCCN(S(C)(=O)=O)C4)s3)n2)c1` (stereo not shown) [Compound A-392], the pIC50 in experiment [1] (Tables 1-x, compounds A) is 6.00 to 7.00; in experiment [2] (Tables 1-x, compounds A) it was 6.00 to 7.00.

Regarding `Cc1ccnc(Nc2cccc(-c3cnc(COCC(=O)N4CC(=O)NC(=O)C4)s3)n2)c1` [Compound A-393], the pIC50 in experiment [1] (Tables 1-x, compounds A) was < 6.00; in experiment [2] (Tables 1-x, compounds A), 6.00 to 7.00.

On to `Cc1ccnc(Nc2cccc(-c3cnc([C@H](CO)NC(=O)c4ccc(O)cc4)s3)n2)c1` [Compound A-394], for which the pIC50 was 6.00 to 7.00 in experiment [1] (Tables 1-x, compounds A) and 6.00 to 7.00 in experiment [2] (Tables 1-x, compounds A).

With `Cc1ccnc(Nc2cccc(-c3cnc(CNC(=O)c4cc(C)on4)s3)n2)c1` [Compound A-395], the pIC50 in experiment [1] (Tables 1-x, compounds A) was < 6.00; in experiment [2] (Tables 1-x, compounds A), 6.00 to 7.00.

Consider `Cc1ccnc(Nc2cccc(-c3cnc(CNC(=O)c4c[nH]cn4)s3)n2)c1` [Compound A-396], for which the negative-log IC50 (pIC50) in experiment [1] (Tables 1-x, compounds A) was < 6.00; in experiment [2] (Tables 1-x, compounds A) it was 6.00 to 7.00.

`Cc1ccnc(Nc2cccc(-c3cnc(C4CCN(C(=O)CS(C)(=O)=O)CC4)s3)n2)c1` [Compound A-397]: the pIC50 in experiment [1] (Tables 1-x, compounds A) is 6.00 to 7.00; in experiment [2] (Tables 1-x, compounds A) it was 6.00 to 7.00.

With `Cc1ccnc(Nc2cccc(-c3cnc(C4CCN(S(=O)(=O)C(C)C)CC4)s3)n2)c1` [Compound A-398], the pIC50 in experiment [1] (Tables 1-x, compounds A) was < 6.00; in experiment [2] (Tables 1-x, compounds A), 6.00 to 7.00.

Take `Cc1ccnc(Nc2cccc(-c3cnc(COCC(=O)N4C[C@H](NCc5ccccc5)[C@@H](O)C4)s3)n2)c1` [Compound A-399]: the pIC50 in experiment [1] (Tables 1-x, compounds A) was < 6.00; in experiment [2] (Tables 1-x, compounds A), < 6.00.

As to `Cc1ccnc(Nc2cccc(-c3cnc(CN4C[C@H](NCc5ccccc5)[C@@H](O)C4)s3)n2)c1` [Compound A-400], the pIC50 in experiment [1] (Tables 1-x, compounds A) was 6.00 to 7.00; in experiment [2] (Tables 1-x, compounds A), 6.00 to 7.00.

For `Cc1ccnc(Nc2cccc(-c3cnc(CN4CCCCC4=O)s3)n2)c1` [Compound A-401], the pIC50 in experiment [1] (Tables 1-x, compounds A) is 6.00 to 7.00; in experiment [2] (Tables 1-x, compounds A), < 6.00.

Consider `CNC(=O)CN1C(=O)OC[C@H]1c1ncc(-c2cccc(Nc3cc(C)ccn3)n2)s1` [Compound A-402], for which the pIC50 is < 6.00 in experiment [1] (Tables 1-x, compounds A) and < 6.00 in experiment [2] (Tables 1-x, compounds A).
